What all share (assay): inhibition of tumour cell growth, NCI panel, 48 h
Assay [1] deals with SF-295 CNS.
Assay [2] has as its system HS 578T breast.
In assay [3] the test system is A549 NSCLC.
The test system of assay [4] is OVCAR-8 ovarian.
In assay [5] the test system is NCI-H522 lung.
Assay [6] deals with KM12 colon.
Assay [7] relates to 786-0 renal.
In assay [8] the test system is HOP-92 NSCLC.
Assay [9] concerns HCT-15 colon.
In assay [10] the test system is NCI-H23 lung.
The subject of assay [11] is SNB-75 CNS.
The test system of assay [12] is ACHN renal.
The test system of assay [13] is MALME-3M melanoma.
Assay [14] deals with OVCAR-5 ovarian.
The subject of assay [15] is UACC-62 melanoma.
Assay [16] deals with OVCAR-4 ovarian.
Assay [17] has as its system SK-MEL-5 melanoma.
In assay [18] the test system is T-47D breast.
The subject of assay [19] is RPMI-8226 leukemia.

Molecules are shown by their SMILES.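 Test compounds were applied to cells in 96-well plates for 48 hours at 5 doses. Definition used: TGI = concentration required for complete inhibition of growth.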 A value given as a limit tells only on which side of the number the result lay.

With `CCOC(=O)C1C(c2ccc(OC)cc2)c2c([nH]n(-c3ccccc3)c2=O)CC1(O)OCC` (configuration not stated), the TGI in [1], in assay [2], in assay [3], in assay [4], in [5] and in assay [6] was > 100 µM each time. In addition, the TGI in [7], in assay [8], in [9], in assay [10], in [11] and in assay [12] was > 100 µM in each case. Also, the TGI in assay [13], in [14], in assay [15], in assay [16], in assay [17] and in [18] was > 100 µM throughout. Further, the TGI in assay [19] is > 100 µM.

As to `CC(C)c1nc2cc(C(F)(F)F)ccc2[nH]c1=O`, the TGI in assay [1] was > 100 µM; in assay [2], 54.5 µM; in assay [3] it was > 100 µM; in assay [4], > 100 µM; in [5], > 100 µM; in [6], > 100 µM. Besides, the TGI in assay [7], in assay [8], in [9], in assay [10], in [11] and in assay [12] was > 100 µM in each case. Moreover, the TGI in [13], in assay [14], in assay [15], in [16], in assay [17] and in assay [18] was > 100 µM in each case. The TGI in [19] is > 100 µM.

For `N#CC(c1ccnc(Cl)n1)c1nc2ccccc2s1` (configuration not stated), the TGI in assay [1] was 31.5 µM; in assay [2], 28.4 µM; in assay [3] it was 52.4 µM; in assay [4], > 41.2 µM; in [5], 11.1 µM; in [6], > 45.9 µM. The TGI in assay [7] was 16.1 µM; in assay [8], 14.1 µM; in assay [9], 14.8 µM; in assay [10], 15.6 µM; in assay [11] it was 13 µM; in assay [12] it was > 94 µM. Further, the TGI in [13] is > 26.5 µM; in assay [14], > 92.5 µM; in assay [15], 15.8 µM; in assay [16] it was > 100 µM; in assay [17], 3.1 µM; in [18], 22.4 µM. This compound returned a TGI in [19] of 25.9 µM.

In the case of `O=c1[nH]cnc2c1sc1nc3ccccc3n12`, the TGI in assay [1] was > 100 µM; in assay [2] it was > 100 µM; in assay [3] it was > 100 µM; in [4], > 100 µM; in assay [5] it was > 100 µM; in [6], 54.9 µM. The TGI in [7], in [8], in assay [9], in assay [10], in assay [11] and in assay [12] was > 100 µM in each case. In addition, the TGI in [13], in [14], in assay [15], in [16], in assay [17] and in assay [18] was > 100 µM in each case. Besides, in assay [19], the TGI was > 100 µM.

Consider `O=C(c1ccco1)N(Cc1ccco1)C(=S)Nc1ccccc1`, for which the TGI is > 84.1 µM in assay [1]; 72 µM in [2]; > 76.8 µM in assay [3]; 59.7 µM in [4]; 37.7 µM in assay [5]; > 100 µM in assay [6]. Moreover, the TGI in assay [7] was 22.7 µM; in assay [8], 30.3 µM; in assay [9], 36.2 µM; in assay [10], 38.1 µM; in assay [11] it was > 74.9 µM; in assay [12], 40.8 µM. Moreover, the TGI in assay [13] was 44.2 µM; in assay [14], > 100 µM; in assay [15], 37.1 µM; in [16], 68.1 µM; in assay [17], 35.9 µM; in assay [18] it was 54.1 µM. For the same compound, the TGI in assay [19] was found to be 11.7 µM.

Regarding `CC(=O)c1c(SCCN2CCCC2)n(-c2ccccc2)c(=S)n(-c2ccccc2)c1=O`, the TGI in assay [1] was > 100 µM; in assay [2] it was 54.2 µM; in assay [3], 15.1 µM; in [4], 23.5 µM; in [5], 8.31 µM; in [6], > 55.7 µM. For the same compound, the TGI in assay [7] worked out at 3.12 µM; in assay [8] it was 18.2 µM; in [9], 27.5 µM; in assay [10] it was 37.4 µM; in [11] it was 31.8 µM; in assay [12], 3.46 µM. Besides, the TGI in assay [13] is 12.2 µM; in assay [14], > 100 µM; in [15] it was 20 µM; in [16], > 90.7 µM; in assay [17] it was 20.8 µM; in [18], 5.42 µM. This compound registered a TGI in [19] of 4.61 µM.

In the case of `COc1ccc(N(CN2C(=O)CCC2C(=O)O)C(C)=O)cc1` (configuration not stated), the TGI in assay [1], in assay [2], in assay [3], in [4], in [5] and in assay [6] was > 100 µM in each case. For the same compound, the TGI in [7], in assay [8], in assay [9], in assay [10], in [11] and in assay [12] was > 100 µM each time. The TGI in assay [13], in [14], in assay [15], in assay [16], in [17] and in assay [18] was > 100 µM throughout. Besides, the TGI in assay [19] is > 100 µM.

For the compound `COc1cc(-c2cc(=O)c3c(OC)c(OC)c(OC)cc3o2)c(OC)c(OC)c1OC`, the TGI in assay [1], in [2], in [3], in assay [4], in assay [5] and in [6] was > 75 µM each time. In addition, the TGI in assay [7], in assay [8], in assay [9], in [10], in assay [11] and in assay [12] was > 75 µM throughout. The TGI in assay [13], in assay [14], in assay [15], in assay [16], in [17] and in [18] was > 75 µM each time. The TGI in assay [19] is > 75 µM.

The values are drawn from PubChem BioAssay (NCI).
